In brackets after ≈: the same amount, converted by molar mass. Where two headings read alike, the source gives them in different places. No end group written: not given here.
What was measured:
[1] = test system: panel of clinically relevant organisms; assay: MIC against panel of clinically relevant organisms, recombinant versus synthetic peptide; assay type: cell-based; conditions: data not shown
Protocol: Aβ and LL-37 peptides were prepared and purified by Dr. James I. Elliott at Yale University (New Haven, CT) using solid-phase peptide synthesis. Scrambled LL-37 peptide was from AnaSpec (San Jose, CA). […] Findings for recombinant and SPPS prepared peptides were equivalent in all experiments.
(§1) Peptide antimicrobial activity was determined as minimal inhibitory concentration (MIC). Experiments identified peptide MIC by broth microdilution susceptibility test in conjunction with CFU and alamar blue assays. Inoculum containing mid-logarithmic phase cells was dispensed into the wells of polypropylene 96-well plates (Fisher, Pittsburgh, PA) containing seven two-fold dilutions of test peptide in growth media. Plates were then incubated aerobically overnight (12 to 18 hrs) at 37°C. Peptide MIC was taken as the lowest concentration able reduce cell growth by CFU and alamar blue assays by at least two-fold and which correlated with the visible loss of a growth button on the bottom of microtiter wells. Experiments were repeated a minimum of three times for each organism, and tests included at least three replicates for each assay condition. Experiments included control serial dilutions of buffer vehicle alone.

[2] = clinical trial in AD patients; cited from earlier work
Candida albicans = assay type: cell-based
Protocol: (§2) Bacteria were cultured aerobically in Mueller-Hinton broth (MHB), Brain and Heart Infusion broth (BHIB), or BHIB supplemented with 1% lysed horse blood and plated on Tryptone Soy Agar (TSA) plates containing 5% defibrinated sheep blood. […] Culture conditions for each organism are included in Table S1. Organisms were subcultured for 2 hrs to generate mid-logarithmic growth cultures for use as inoculates in experiments. Media reagents were obtained from Becton, Dickinson and Company (Sparks, MD).
(§3) Colonies from agar were transferred by sterile loop to growth media and incubated for 2 hrs at 37°C to achieve a McFarland density of 0.5. Bacteria inoculum cell densities were normalized to 5×10^5 cells/ml immediately before use photometrically and subsequently confirmed by colony count. Inoculum of C. albicans contained a cell density of 2.5×10^3 CFU/ml.
(§4) Bulk powdered peptides were first dissolved in 30% trifluoroethanol (TFE) at 1 mg/ml. Five hundred microliter aliquots of the stock solutions were lyophilized and stored under nitrogen at −20°C. Stock solutions at 2 mg/ml were prepared the day of experimentation from the peptide films by solubilizing a second time in either water or 20% TFE. Aβ stocks prepared in water were sonicated and insoluble peptide aggregates pelleted by centrifugation (10 min×16,000 g). Peptide concentrations in stock solutions were determined immediately before use by bicinchoninic acid (BCA) protein assay. […] For MIC experiments, peptides were serially diluted into growth media. For other experiments stocks were diluted into required working buffers. Experiments included controls for peptide buffer vehicle alone.
as §1
(§5) Serial dilutions of incubants were prepared and streaked onto the surface of agar. The agar plates were then incubated overnight at 37°C and colonies forming units counted.
(§6) Microbial growth was determined by following the reduction of the synthetic metabolic substrate resazurin (alamar blue) to a fluorescent product by respiratory enzymes in living cells. Alamar blue assay is used in high throughput screens for antimicrobial agents and is available commercially in kit form from Invitrogen. Microbial growth in experiments was assayed with alamar blue kits according to the manufacturer's instructions. […] Fluorescence signal was measured at excitation of 530 nm and emission at 590 nm.

Enterococcus faecalis = assay type: cell-based
Protocol: as §2, §3, §4, §1, §5, §6

Escherichia coli = assay type: cell-based
Protocol: as §2, §3, §4, §1, §5, §6

Listeria monocytogenes = assay type: cell-based
Protocol: as §2, §3, §4, §1, §5, §6

Pseudomonas aeruginosa = assay type: cell-based
Protocol: as §2, §3, §4, §1, §5, §6

Staphylococcus aureus = assay type: cell-based
Protocol: as §2, §3, §4, §1, §5, §6

[3] = test system: Staphylococcus epidermidis; assay type: cell-based
Protocol: as §2, §3, §4, §1, §5, §6

Streptococcus agalactiae = assay type: cell-based
Protocol: as §2, §3, §4, §1, §5, §6

Streptococcus mitis = assay type: cell-based
Protocol: as §2, §3, §4, §1, §5, §6

Streptococcus pneumoniae = assay type: cell-based
Protocol: as §2, §3, §4, §1, §5, §6

Streptococcus pyogenes = assay type: cell-based
Protocol: as §2, §3, §4, §1, §5, §6

Streptococcus salivarius = assay type: cell-based
Protocol: as §2, §3, §4, §1, §5, §6

E. faecalis = assay: Growth curves of E. faecalis with peptide, CFU count; assay type: cell-based, Enterococcus faecalis; conditions: 25 µg/ml peptide; growth with time by CFU; six experiments, four replicates (Figure 1A)
Protocol: as §5

| MIC (Candida albicans; pH 7) [µg/mL] | MIC (Enterococcus faecalis) [µg/mL] | MIC (Escherichia coli) [µg/mL] | MIC (Listeria monocytogenes) [µg/mL] | MIC (Pseudomonas aeruginosa) [µg/mL] | MIC (Staphylococcus aureus) [µg/mL] | MIC [3] [µg/mL] | MIC (Streptococcus agalactiae) [µg/mL] | MIC (Streptococcus mitis) [µg/mL] | MIC (Streptococcus pneumoniae) [µg/mL] | MIC (Streptococcus pyogenes) [µg/mL] | MIC (Streptococcus salivarius) [µg/mL] | Molecule | further results |
| --- | --- | --- | --- | --- | --- | --- | --- | --- | --- | --- | --- | --- | --- |
| – | – | – | – | – | – | – | – | – | – | – | – | recombinant Aβ42: Recombinant human Aβ42 purchased from rPeptide | Antimicrobial activity compared with synthetic Aβ42 [1]: Equivalent findings |
| – | – | – | – | – | – | – | – | – | – | – | – | C[C@@H](C(=O)O)c1ccc(-c2ccccc2)c(F)c1 [tarenflurbil] | Rates of infection in patients receiving the drug [2]: significantly increased rates of infection |
| 0.78 | 3.13 | 3.13 | 6.25 | >50 | 12.5 | 3.13 | >50 | >50 | 6.25 | >50 | >50 | DAEFGHDSGFEVRHQKLVFFAEDVGSNKGAIIGLMVGGVVIA [roAβ42] | – |
| >25 | 50 | >50 | >50 | >50 | >50 | >50 | >50 | >50 | 50 | >50 | >50 | AIVVGGVMLGIIAGKNSGVDEAFFVLKQHHVEYGSDHRFEAD [reAβ42, Aβ42-1] | – |
| – | – | – | – | – | – | – | – | – | – | – | – | CC[C@H](C)[C@H](NC(=O)[C@H](CCCCN)NC(=O)[C@H](CCC(=O)O)NC(=O)[C@H](CCCCN)NC(=O)[C@H](CO)NC(=O)[C@H](CCCCN)NC(=O)[C@H](CCCNC(=N)N)NC(=O)[C@H](Cc1ccccc1)NC(=O)[C@H](Cc1ccccc1)NC(=O)[C@H](CC(=O)O)NC(=O)CNC(=O)[C@H](CC(C)C)NC(=O)[C@@H](N)CC(C)C)C(=O)NCC(=O)N[C@@H](CCCCN)C(=O)N[C@@H](CCC(=O)O)C(=O)N[C@@H](Cc1ccccc1)C(=O)N[C@@H](CCCCN)C(=O)N[C@@H](CCCNC(=N)N)C(=O)N[C@H](C(=O)N[C@H](C(=O)N[C@@H](CCC(N)=O)C(=O)N[C@@H](CCCNC(=N)N)C(=O)N[C@H](C(=O)N[C@@H](CCCCN)C(=O)N[C@@H](CC(=O)O)C(=O)N[C@@H](Cc1ccccc1)C(=O)N[C@@H](CC(C)C)C(=O)N[C@@H](CCCNC(=N)N)C(=O)N[C@@H](CC(N)=O)C(=O)N[C@@H](CC(C)C)C(=O)N[C@H](C(=O)N1CCC[C@H]1C(=O)N[C@@H](CCCNC(=N)N)C(=O)N[C@H](C(=O)N[C@@H](CCC(=O)O)C(=O)N[C@@H](CO)C(=O)O)[C@@H](C)O)C(C)C)[C@@H](C)CC)C(C)C)[C@@H](C)CC [LL-37] | MIC (Candida albicans; Candida albicans ATCC 10231, RPMI-1640 with 2% glucose, MOPS pH 7.0, inoculum 2.5×10^3 CFU/ml, mid-logarithmic phase, overnight (12 to 18 hrs) 37°C, visual inspection confirmed by alamar blue and CFU, repeated at least three times): 6.25 µg/mL (≈ 1.39 µM); MIC (Enterococcus faecalis; Enterococcus faecalis ATCC 29212, inoculum 5×10^5 cells/ml, mid-logarithmic phase, overnight (12 to 18 hrs) 37°C, visual inspection confirmed by alamar blue and CFU, repeated at least three times): 6.25 µg/mL (≈ 1.39 µM); MIC (Escherichia coli; Escherichia coli ATCC 25922, inoculum 5×10^5 cells/ml, mid-logarithmic phase, overnight (12 to 18 hrs) 37°C, visual inspection confirmed by alamar blue and CFU, repeated at least three times): 1.56 µg/mL (≈ 0.347 µM); MIC (Listeria monocytogenes; Listeria monocytogenes ATCC 19112, inoculum 5×10^5 cells/ml, mid-logarithmic phase, overnight (12 to 18 hrs) 37°C, visual inspection confirmed by alamar blue and CFU, repeated at least three times): 25 µg/mL (≈ 5.56 µM); MIC (Pseudomonas aeruginosa; Pseudomonas aeruginosa ATCC 27853, inoculum 5×10^5 cells/ml, mid-logarithmic phase, overnight (12 to 18 hrs) 37°C, visual inspection confirmed by alamar blue and CFU, repeated at least three times): 6.25 µg/mL (≈ 1.39 µM); MIC (Staphylococcus aureus; Staphylococcus aureus ATCC 25923, inoculum 5×10^5 cells/ml, mid-logarithmic phase, overnight (12 to 18 hrs) 37°C, visual inspection confirmed by alamar blue and CFU, repeated at least three times): 6.25 µg/mL (≈ 1.39 µM); MIC ([3]; Staphylococcus epidermidis ATCC 12228, inoculum 5×10^5 cells/ml, mid-logarithmic phase, overnight (12 to 18 hrs) 37°C, visual inspection confirmed by alamar blue and CFU, repeated at least three times): 25 µg/mL (≈ 5.56 µM); MIC (Streptococcus agalactiae; Streptococcus agalactiae ATCC 12386, inoculum 5×10^5 cells/ml, mid-logarithmic phase, overnight (12 to 18 hrs) 37°C, visual inspection confirmed by alamar blue and CFU, repeated at least three times): 12.5 µg/mL (≈ 2.78 µM); MIC (Streptococcus mitis; Streptococcus mitis ATCC 6249, inoculum 5×10^5 cells/ml, mid-logarithmic phase, overnight (12 to 18 hrs) 37°C, visual inspection confirmed by alamar blue and CFU, repeated at least three times): 6.25 µg/mL (≈ 1.39 µM); MIC (Streptococcus pneumoniae; Streptococcus pneumoniae ATCC 49619, inoculum 5×10^5 cells/ml, mid-logarithmic phase, overnight (12 to 18 hrs) 37°C, visual inspection confirmed by alamar blue and CFU, repeated at least three times): 1.56 µg/mL (≈ 0.347 µM); MIC (Streptococcus pyogenes; Streptococcus pyogenes ATCC 19615, inoculum 5×10^5 cells/ml, mid-logarithmic phase, overnight (12 to 18 hrs) 37°C, visual inspection confirmed by alamar blue and CFU, repeated at least three times): 6.25 µg/mL (≈ 1.39 µM); MIC (Streptococcus salivarius; Streptococcus salivarius ATCC 13419, inoculum 5×10^5 cells/ml, mid-logarithmic phase, overnight (12 to 18 hrs) 37°C, visual inspection confirmed by alamar blue and CFU, repeated at least three times): 50 µg/mL (≈ 11.1 µM); Action on E. faecalis growth (bacteriostatic or bactericidal) (E. faecalis): potent bactericidal activity |

— PMC2831066, “The Alzheimer's Disease-Associated Amyloid β-Protein Is an Antimicrobial Peptide” (PLoS ONE, 2010)
